According to patent US20250352498A1, “PHARMACEUTICAL FORMULATIONS CONTAINING PHENYLBUTYRATE AND METHODS THEREOF” (AARDVARK THERAPEUTICS INC., priority 2024, published 2025):

sodium phenylbutyrate
solubility in hydrophilic solvent (hydrophilic solvent): highly soluble
solubility in hydrophobic excipients (hydrophobic excipients): poorly soluble
water solubility (water): freely water soluble
